Experimental findings from patent US20100240656A1, “COMPOUNDS AS HSP90 INHIBITORS” (ORYZON GENOMICS, S.A., priority 2007, published 2010) are described below.

SMILES strings stand for the structures. pEC50, pIC50: −log10 of the molar value.

One experiment deals with T1, Hsp90α (Homo sapiens, UniProt P07900).
T1 construct: purchased Stressgen Bioreagents SPP-776
Briefly: Human Hsp90α fluorescence polarization competition assay with Example 37 tracer. The note with it: displacement of 50 nM example 37 tracer, 125 nM Hsp90α, 1 h 30 min, 20° C.; read-out: Relative binding affinity values (IC50) obtained from FP measurements. The text has this: The aim of this study was to determine the binding ability of compounds of the invention to the N-terminal ATP binding site of Hsp90. For that purpose competition assays with fluorescently labeled Hsp90 binders were used (compounds of examples 37 and 41).
Compounds of examples 37 and 41 are structurally based on 8-(6-Iodo-benzo[1,3]dioxol-5-ylsulfanyl)-9-(3-isopropylamino-propyl)-9H-purin-6-ylamine, a known binder of the N-terminal ATP binding site of Hsp90 which has the ability of inhibiting the Hsp90 function (cf. Chiosis G. et al. “Identification of Potent Water Soluble Purine-Scaffold Inhibitors of the Heat Shock Protein 90”, J. Med. Chem., 2006, vol. 49, no. 1, p. 381). Compounds 37 and 41 keep the essential structural features of the known binder (which means that said compounds are able to bind to the ATP binding site) and incorporate a fluorescent probe which allows the detection of the binding by fluorescence polarization.
When the binders of examples 37 and 41 are used in the competition assay, in a first step said binders are allowed to interact with the N-terminal ATP binding site of Hsp90. Then the compounds of the invention are added and it is determined if they are able to bind to the N-terminal ATP binding site (which will imply that the binders of examples 37 and 41 have been replaced from the N-terminal ATP binding site). If after performing the assay, the binding between the tested compound of the invention and the Hsp90 is observed, this will be indicative that the compound of the invention has been bound to the ATP binding site of Hsp90 and, therefore, can inhibit the Hsp90.
Once compounds of examples 37 and 41 were synthesized as reported above, they were dissolved at 238 μM and 1 mM in DMSO respectively (Sigma-Aldrich, cat. No. 154938). Hsp90α was purchased from Stressgen Bioreagents (cat. No. SPP-776; Victoria, Canada). The assay buffer contained 100 mM Tris·HCl, pH 7.4, 20 mM KCl, 6 mM MgCl2. Before each use 5 μg/mL bovine serum albumin (BSA, Pierce, Rockford (Ill.), cat No. 23209), 0.25 mM TCEP (Sigma, cat No. 64706) and 0.01% NP40 (Nonidet P40 Substitute, Fluka, cat No. 74385) were freshly added (cf. Howes et al., “A fluorescence polarization assay for inhibitors of Hsp90”, Analytical Biochemistry, 2006, vol. 350, p. 202-213; Kim et al., “Development of a fluorescence polarization assay for the molecular chaperone Hsp90”, J. Biomol. Screen., 2004, vol. 9 (5)).
Fluorescence polarization measurements were performed on an Infinite F200 (Tecan, Austria). Measurements were taken in black 96-well microplates (Corning Costar No. 3650) in which both the excitation and the emission occurred from the top of the wells. In the Infinite F200, a xenon arc lamp provides excitation light that passes through a 485 nm (20-nm bandwidth) excitation filter and then a polarizer filter. A beam splitter filter directs the polarized excitation light into the well, and emitted fluorescence transmits back through the same beam-splitter filter, through a polarizer filter, and then through a 535 nm (25-nm bandwidth) emission filter for detection (Kim et al., supra). The read time per well was 20 μs, and the number of reads per well was 25.
Compounds were assayed over a three-fold dilution series in a 96-well plate format to determine IC50 values. The serial dilution was performed in a separate 96-well plate (Thermowell 96 well PCR plate, Non-Treated Polypropylene, Corning Costar No. 6551) at 50 times final assay concentration in DMSO. (Howes et al, supra). 2 μl of compound was transferred to a black 96-well plate (Corning Costar No. 3650) and 98 μL of reaction solution (100 mM Tris·HCl, pH 7.4, 20 mM KCl, 6 mM MgCl2, 5 μg/mL bovine serum albumin (BSA), 0.25 mM TCEP, 0.01% NP40, 50 nM the compound of example 37, 125 nM Hsp90α) was added per well. The plate was allowed to equilibrate for 1 h 30 min on a slow moving shaker at 20° C. in the dark. […]
(In general: In fluorescence polarisation assays a small probe gives low polarisation when free and higher when bound to something large.)

The next experiment relates to HCT-116. Briefly: Cell growth inhibition by AlamarBlue method, HCT-116. The format is cell-based. The note with it: Homo sapiens; HCT-116, 72 hours; read-out: Cell growth inhibition values (EC50) obtained with AlamarBlue method. As for the experimental part: (§1) The human colon cancer cell line HCT-116 and the human breast cell lines MCF-7 and SKBr3 were from the American Type Culture Collection (ATCC; CCL-247, HTB-22 and HTB-30, respectively).
(§2) The HCT-116 and SKBr3 cell lines were maintained in DMEM GlutaMAX (Invitrogen) supplemented with 10% fetal calf serum and the MCF-7 cell line was maintained in RPMI1640 GlutaMAX (Invitrogen) containing 1 mM sodium pyruvate and 10% fetal calf serum. Cells were grown in a humidified incubator at 37° C. in 5% CO2
(§3) Cells were plated in 96-well plates (Costar, 3596) at a density of 6000 cells/well in 50 μL medium 24 h before addition of the compounds. Compounds were then added in 8 concentrations, each in triplicate (dilution series of 1 to 3). To do so, a compound-dilution plate at 200× the screening concentrations was prepared in DMSO 100% (Sigma, 154938). Then, 1.7 μL of the 200× diluted compounds were transferred to a new plate and 170 μL of media were added and mixed with the pipette (plate at 2×). Columns 11 and 12 of this plate (controls) were filled with 1% DMSO in cell media (i.e. 1.7 μL DMSO and 170 μL cell media). Finally, 50 μL of this intermediate plate at 2× were transferred to the plate containing the seeded cells and slowly shaken manually. Cells were grown as described above. AlamarBlue viability assay (Biosource, Invitrogen, DAL1100) was performed 72 hours later following manufacturer's protocol. In brief, AlamarBlue diluted in media was added to cells to have a 5% solution (a 2× solution was prepared in media and 100 μL of this solution were transferred to each well, i.e. final volume of 200 μL). Cells were incubated at 37° C., 3 hours and at room temperature for an additional 30 min. Cells with no compound and, cells with no compound and lysed with triton X-100 (30 μL/well added 10 min before treatment with AlamarBlue) were used as controls (6 replicates of each). Fluorescence was monitored at 530 nm excitation and 590 nm emission wavelengths. Results were quantified using ELx800 Universal Microplate Reader (Bio-Tek Instruments, Inc.). EC50 were calculated as the dose of compound required to inhibit cell growth by 50%.
(Alamar Blue is a resazurin reagent that responds to reducing activity.)

Another experiment concerns SKBr3. Nature of the experiment: Cell growth inhibition by AlamarBlue method, SKBr3. The format is cell-based. The note with it: Homo sapiens, SK-BR-3; SKBr3, 72 hours; read-out: Cell growth inhibition values (EC50) obtained with AlamarBlue method. The protocol: as §1, §2, §3

By pIC50 is commonly meant −log10 of the IC50, conventionally taken in molar units. One may read the pEC50 as the negative decadic logarithm of the EC50, by convention in mol/L. As to `CCOc1cc2c(cc1Sc1nc(C(N)=O)c(N)n1C)OCO2` [Example 79, 5-amino-2-[(6-ethoxy-1,3-benzodioxol-5-yl)thio]-1-methyl-1H-imidazole-4-carboxamide], the pIC50 at Hsp90α is 4.90. Further, the pEC50 in the experiment with HCT-116 was 4.04.
For `CCCCn1c(Sc2cc(OC)ccc2OC)nc(C(N)=O)c1N` [Example 27, 5-amino-1-butyl-2-(2,5-dimethoxy-phenylsulfanyl)-1H-imidazole-4-carboxamide], the pIC50 on Hsp90α is 3.70.
In the case of `Cn1c(Sc2cc3c(cc2I)OCO3)nc(C(N)=O)c1N` [Example 85, 5-amino-2-[(6-iodo-1,3-benzodioxol-5-yl)thio]-1-methyl-1H-imidazole-4-carboxamide], the pIC50 on Hsp90α is 5.28.
For the compound `NC(=O)c1nc(Sc2cc3c(cc2Br)OCO3)n(CCCN2CCOCC2)c1N` [Example 86, 5-amino-2-[(6-bromo-1,3-benzodioxol-5-yl)thio]-1-(3-morpholin-4-ylpropyl)-1H-imidazole-4-carboxamide], the pIC50 at Hsp90α is 5.47. Besides, in the experiment on HCT-116, the pEC50 was 4.04.
Turning to `CCN(CC)CCCn1c(Sc2cc3c(cc2I)OCO3)nc(C(N)=O)c1N` [Example 88, 5-Amino-2-[(6-iodo-1,3-benzodioxol-5-yl)thio]-1-[3-(diethylamino)propyl]-1H-imidazole-4-carboxamide], the pIC50 on Hsp90α is 6.22. The pEC50 in the experiment with SKBr3 was 5.96.
For `CSc1cc2c(cc1Sc1nc(C(N)=O)c(N)n1C)CCO2` [Example 99, 5-amino-2-{[6-(methylthio)-2,3-dihydro-1-benzofuran-5-yl]thio}-methyl-1H-imidazole-4-carboxamide], the pIC50 at Hsp90α is 4.89. The pEC50 in the experiment on HCT-116 is 4.07; in the experiment on SKBr3 it was 4.26.
Regarding `CCN(CC)CCCn1c(Sc2cc3c(cc2SC)OCO3)nc(C(N)=O)c1N` [Example 98, 5-amino-2-{[6-(methylthio)-1,3-benzodioxol-5-yl]thio}-1-[3-(diethylamino)propyl]-1H-imidazole-4-carboxamide], on Hsp90α, the pIC50 was 5.70. Further, the results for the pEC50 with HCT-116 and in the experiment on SKBr3 were 5.22 and 5.72, respectively.
Consider `CCN(CC)CCCn1c(Sc2cc3c(cc2Br)OCO3)nc(C(N)=O)c1N` [Example 89, 5-amino-2-[(6-bromo-1,3-benzodioxol-5-yl)thio]-1-[3-(diethylamino)propyl]-1H-imidazole-4-carboxamide], for which the pIC50 on Hsp90α is 5.32. In the experiment with SKBr3, the pEC50 is 4.74.
In the case of `Cc1c(N)c(C(N)=O)nn1Cc1cc2c(cc1Br)OCO2` [Example 92, 4-amino-1-(6-bromo-benzol[1,3]dioxol-5-ylmethyl)-5-methyl-1H-pyrazole-3-carboxamide], in the experiment on HCT-116, the pEC50 is 4.68.
In the case of `CCSc1cc2c(cc1Sc1nc(C(N)=O)c(N)n1CCCN(CC)CC)OCO2` [Example 100, 5-amino-2-{[6-(ethylthio)-1,3-benzodioxol-5-yl]thio}-1-[3-(diethylamino)propyl]-1H-imidazole-4-carboxamide], the pIC50 at Hsp90α is 5.84. Besides, the pEC50 in the experiment with HCT-116 was 5.92.
As for `CC(C)c1cc2c(cc1Sc1nc(C(N)=O)c(N)n1C)OCO2` [Example 75, 5-amino-2-[(6-isopropyl-1,3-benzodioxol-5-yl)thio]-1-methyl-1H-imidazole-4-carboxamide], on Hsp90α, the pIC50 was 4.25.
`Cc1c(NS(C)(=O)=O)c(C(N)=O)nn1Cc1cc2c(cc1Br)OCO2` [Example 95, 1-[(6-bromo-1,3-benzodioxol-5-yl)methyl]-5-methyl-4-[(methylsulfonyl)amino]-1H-pyrazole-3-carboxamide]: the pEC50 in the experiment with HCT-116 was 4.08.
For `CSc1cc2c(cc1Sc1nc(C(N)=O)c(N)n1C)OCO2` [Example 81, 5-amino-1-methyl-2-{[6-(methylthio)-1,3-benzodioxol-5-yl]thio}-1H-imidazole-4-carboxamide], the pIC50 on Hsp90α is 5.40. Besides, in the experiment on SKBr3, the pEC50 is 4.64.
Consider `CC(=O)Nc1c(C(N)=O)nn(Cc2cc3c(cc2Br)OCO3)c1C` [Example 93, 4-(acetylamino)-1-[(6-bromo-1,3-benzodioxol-5-yl)methyl]-5-methyl-1H-pyrazole-3-carboxamide], for which the pEC50 with HCT-116 was 4.52.
Consider `Cn1c(Sc2nc3cccc(Cl)c3s2)nc(C(N)=O)c1N` [Example 51, 5-amino-2-(7-chloro-benzothiazol-2-ylsulfanyl)-1-methyl-1H-imidazole-4-carboxamide], for which, on Hsp90α, the pIC50 was 5.51.
Same read-out and setting: the result for `CC(=O)Nc1c(C(N)=O)nc(Sc2cc3c(cc2I)OCO3)n1CCCNC(C)C` [Example 69, 5-acetylamino-2-(6-iodo-benzo[1,3]dioxol-5-ylsulfanyl)-1-(3-isopropylamino-propyl)-1H-imidazole-4-carboxamide] reads 3.70.
With `CCC(=O)Nc1c(C(N)=O)nn(Cc2cc3c(cc2Br)OCO3)c1C` [Example 94, 1-[(6-bromo-1,3-benzodioxol-5-yl)methyl]-5-methyl-4-(propionylamino)-1H-pyrazole-3-carboxamide], in the experiment with HCT-116, the pEC50 was 5.68.
For the compound `Cn1c(Sc2cc3c(cc2Br)OCO3)nc(C(N)=O)c1N` [Example 73, 5-amino-2-[(6-bromo-1,3-benzodioxol-5-yl)thio]-1-methyl-1H-imidazole-4-carboxamide], the pIC50 on Hsp90α is 4.82. The pEC50 in the experiment with HCT-116 was 4.11.
For the compound `Cn1c(Sc2cc3c(cc2S(C)(=O)=O)OCO3)nc(C(N)=O)c1N` [Example 83, 5-amino-1-methyl-2-{[6-(methylsulfonyl)-1,3-benzodioxol-5-yl]thio}-1H-imidazole-4-carboxamide], the pIC50 on Hsp90α is 5.10. For the same compound, the pEC50 in the experiment on HCT-116 was 4.58.
